Test results: ChEMBL document CHEMBL1158100, “Sesquiterpenes from Thapsia nitida var. meridionalis and Thapsia nitida var. nitida” (J Nat Prod, 2006)
The source made the active and inactive calls. The rule behind the calls is not given here.

Experiment: Inhibition of sarcoplasmic/endoplasmic reticulum calcium ATPase at upto 100 uM

SMILES	Activity
C=C1CC[C@@H]2[C@@H](OC(=O)[C@@]2(C)OC(=O)/C(C)=C\C)[C@H]2[C@@H]1C[C@@H](OC(C)=O)[C@@]2(C)O	inactive
C=C1C(=O)O[C@@H]2[C@H]1CC[C@]1(C)[C@@H]3O[C@@H]3[C@H](OC(=O)C=C(C)C)C(=C)[C@@H]21	inactive
C=C1CC[C@@H]2[C@@H](OC(=O)[C@@]2(C)OC(=O)/C(C)=C/C)[C@H]2[C@@H]1C[C@@H](OC(C)=O)[C@@]2(C)O	inactive

The remaining lines, values ahead:

Activity	SMILES
inactive	C=C1C(=O)O[C@@H]2[C@H]1CC[C@]1(C)[C@@H]3O[C@@H]3[C@H](OC(=O)CC(C)C)C(=C)[C@@H]21
inactive	C/C=C(/C)C(=O)O[C@]1(C)C(=O)O[C@H]2[C@@H]3C(C)=CC[C@@H]3[C@@](C)(O)CC[C@H]21
inactive	C=C1CC[C@@H]2[C@@H](OC(=O)[C@@]2(C)OC(=O)/C(C)=C\C)[C@@H]2C(C)=CC[C@H]12

Experiment: Inhibition of sarcoplasmic/endoplasmic reticulum calcium ATPase at upto 10 uM

Activity	SMILES
inactive	C=C1C(=O)O[C@@H]2[C@H]1CC[C@]1(C)[C@@H]3O[C@@H]3[C@H](OC(=O)C=C(C)C)C(=C)[C@@H]21
